According to patent US11707557B2, “Compositions and devices incorporating water-insoluble therapeutic agents and methods of the use thereof” (COOK MEDICAL TECHNOLOGIES LLC, priority 2014, dated 2023):
Values after ≈ are worked out from the molar mass of the structure shown.

Key:
[1] = Liquid pharmaceutical excipients in gallate based pastes (solubility, viscosity score, pellet in water); type: physicochemical
From the text: Various additional water/soluble/miscible liquids were explored (in addition to propylene glycol and polyethylene glycol) as excipients in gallate based pastes.
A viscosity score was established as follows: 1) Fluid—22 gauge needle; 2) Semi Viscous—18 gauge needle; 3) Viscous—16 gauge needle; 4) Waxy Pellet in water.

[2] = 24 h
Description: (§1) PBS (EGCG) or water (tannic acid) was added and the final solution filtered through a 0.22 micron filter to remove any particulates. The solutions were analyzed for drug concentration using HPLC.
(§2) PBS (EGCG) or water (tannic acid) was added and the final solution filtered through a 0.22 micron filter to remove particulates. The solution was then analyzed for drug concentration using absorbance spectroscopy at 450 nm.
(§3) PBS (EGCG) or water (tannic acid) was added and the final solution was filtered through a 0.22 micron filter to remove any particulates and the solution was analyzed for drug concentration using HPLC.
(§4) PBS (EGCG) or water (tannic acid) was added and the final solution filtered through a 0.22 micron filter to remove any particulates and the solution was analyzed for drug concentration using HPLC.
(§5) PBS (EGCG) or water (Tannic acid) was added and the final solution was filtered through a 0.22 um filter to remove any particulates and the solution was analyzed for drug concentration using HPLC.
(§6) Method: drug and EGCG or tannic acid were dried down from acetonitrile (or methanol for tannic acid) solutions at various drug to EGCG or tannic acid ratios. PBS (EGCG) or water (Tannic acid pH adjusted to 7) was added and the final solution was filtered through a 0.22 um filter to remove any particulates and the solution was analyzed for drug concentration using HPLC methods.

[3] = Release from PLGA microspheres +/- EGCG or tannic acid; type: physicochemical; details: for drug released: first 20 days
Description: Method: The method involved pipetting a solution of the polymer PLGA (usually 20% w/v) and drug (usually 5% w/w to polymer) and EGCG (e.g. 20% w/w/ to polymer) in dichlomethane (DCM) (5 ml) into 100 ml of 2.5% PVA solution in water stirring at 450 rpm. The suspension was left stirring for 2 hours and the microspheres washed 4 times in distilled water. The microspheres were then dried under vacuum for 2 days. Drug encapsulation was measured by dissolving a known weight of microspheres in 1 ml of dichloromethane followed by immediate dilution to 10 ml in 60:40 acetonitrile/water. The amount of drug or EGCG in the top and bottom phase of this solution was measured using HPLC methods (mobile phase 58:37:5 Acetonitrile:water:methanol. 1 ml per min flow on a c18 column with detection at 232 nm)
Tannic acid: An alternative method was used, termed a water-in oil-in water emulsion. […] This forms a primary emulsion of water droplets in the PLGA solution stabilized by Span. When this emulsion was pipetted into the PVA solution the microspheres formed well. […] The microspheres were a light brown in color indicative of tannic acid encapsulation.
Methods: In these studies, 10 mg of microspheres were suspended in 2 ml of phosphate buffered saline (pH 7.4 10 mM phosphate) in microcentrifuge tubes and tumbled at 8 rpm at 37° C. The tubes were then centrifuged at 12000×g and the supernatants collected for drug analysis by HPLC. 2 ml of fresh PBS was then placed on top of the microspheres which were returned to the 37° C. oven for continued incubation with tumbling.
At the end of the study the residual mass of polymer and drug was dissolved in DCM and drug extracted into 60:40 acetonitrile:water to measure residual drug. The amounts of residual drug were 89% for plga alone (at 31 days), 16% for EGCG and 8% for tannic acid (both at 51 days) as expressed as a % of the original loading.

[4] = Release of finasteride from PVA foam embolization particles and Embospheres; type: physicochemical
Description: Method: PVA foam embolization particles (Cook. Medical Bloomington Ind.) size 180-300 um. Vial of 220 mg split into two. 150 mg of EGCG with 10 mg of finasteride or 250 mg tannic acid with 1 mg of finasteride were dried as a common film from ethanol and solubilised in 1 ml of water and added to the 100 mg of PVA particles. Solutions were mixed for 30 minutes. At this time it was observed that all the EGCG or tannic acid color (pink or brown respectively) had disappeared from the solution and gone into the PVA which was now heavily colored. The solution was discarded and the PVA freeze dried. 10 mg of the EGCG formulation or 5 mg of the tannic acid formulation was added to 2 ml of PBS (pH 7.4) and the release of finasteride was measured over 2 weeks.
Embospheres: Syringe contents ((Embospheres 500-700 um Merit Medical S. Jordan Utah) were split into two and incubated in water solutions of finasteride (1 mg/ml in 35 mg of EGCG or tannic acid made up from dried films as above) for 30 minutes with shaking. At this time it was observed that all the EGCG or tannic acid color (pink or brown respectively) had disappeared from the solution and gone into the Embospheres which were no heavily colored. The solution was discarded. 20% of the resulting particles (still wet) were then placed in microcentrifuge tubes containing 2 ml of PBS and drug release was measured.

physchem [5] = type: physicochemical; details: for solubility: thermodynamic from solid
Description: Method: Solutions of finasteride and either EGCG or tannic acid at various weight percentages in ethanol were dried down under nitrogen. Water was added and the dried material suspended/dissolved. […] The pH of tannic acid solutions was brought up to 7 by the addition of NAOH.

physchem [6] = test: physchem
Description: as §1, §2, §3, §4, §5, §6

Caco2 cells = test: Transport of curcumin through Caco2 cells (transwell); type: in vitro ADME, human; details: 3 hours
From the text: Caco2 cells are continuous cells of human epithelial colorectal adenocarcinoma cells. They contain drug efflux proteins and may be used in the same way that MDCK-MDR cells are, i.e. to measure drug accumulation in cells that have the ability to efflux drugs.
Caco2 cells (ATCC, VA, USA) are proliferating gut epithelial cells used throughout the pharmaceutical sciences as a model of oral drug availability. These cells may be grown in cell culture on membranes where they align with an apical external surface (equivalent to the gut lumen) and a basolateral lower surface that is equivalent to the cell side adjacent to the blood capillaries. When an EGCG curcumin solution was placed in the upper portion of a transwell containing these cells on a membrane for three hours, large amounts of curcumin either passed through or accumulated within the caco2 cells.
Caco2 cells were seeded onto 0.3 um transwell membranes and left to grow to confluence for 3 days. A conductivity electrode measured the Transcellular electrical resistance value over the next few days and when it had reached […] (tight junctions established) the experiment began. A solution of curcumin (250 microgram per ml) in EGCG (25 mg per ml) in Hanks buffer pH 7.4. was added to the top well for 3 hours. […] All solutions were then analyzed for curcumin content using uv-vis absorbance spectroscopy at 430 nm.

[7] = Drug concentrations obtained using EGCG at 50 mg per ml (microscopic check for particulates); type: physicochemical
Description: EGCG at 50 mg/ml and drug at approximately 250 micrograms per ml were dissolved in the listed solvent and dried down in a test tube under nitrogen. 1 ml of water was added, followed by vortexing. The solutions were examined for particulate matter under a microscope. If no particulates were present, the process was repeated with a higher drug amount. All the tested drugs remained in solution at the listed concentrations except for nystatin and hesperidin.

[8] = Drug in EGCG or tannic acid films (optical microscopy, DSC); type: physicochemical
Description: Thin films of drugs were cast in either EGCG or tannic acid from ethanol solutions. Drugs in either EGCG or tannic acid were dissolved in ethanol at a final total concentration of 20% w/v and spot pipetted in repeated 10 microliter volumes and allowed to dry between spotting. This allowed a thin film to accumulate and dry. Some solutions contained either glycerol or polyethylene glycol 300 at 10% or 20% w/w to EGCG or tannic acid. The films were allowed to dry and examined by optical microscopy for drug precipitation. Films were allow analyzed by differential scanning calorimetry (DSC) for identify drug crystals.

pig skin = system: pig skin
Description: Various gallate-containing drug formulations were prepared and applied to ex vivo pig skin samples. Fresh pig skin was obtained from a local butcher, processed within three hours and then frozen. For experiments, the skin was slowly thawed, excess fat removed from the base, and cut into 1×2 cm squares. These squares were mounted and clamped on Franz diffusion cells, which kept the tissue moist and isolated and exposed a 6 mm diameter of the upper skin surface for the application of a drug loaded formulation. Skin samples were then frozen and later cryosectioned in 50 μm slices. The drug in the slices was extracted and measured by HPLC or radioactive doping methods. A drug depth profile was then established for each drug.
1. Formulations containing a drug and a gallate. The drugs were dissolved in ethanol at various concentrations along with either EGCG or TA (500 mg/mL). Each solution was pipetted into 6×5 mm diameter aluminum cups (approximately 3 mm in height) by filling and allowing the ethanol to evaporate at 50° C. until all the solution was used up (80 mg per cup).
2. Formulations containing a drug, propylene glycol (“PG”) and a gallate. 300 mg of propylene glycol was mixed with 200 mg of EGCG or TA until dissolved. Various amounts of drug were added to this mixture and dissolved. 80 mg of the resulting viscous solution was weighed into 6×5 mm aluminum cups.
3. Control Formulations. Control formulations were prepared using Glaxal base and Plogel. Glaxal base is a cream used by compounding pharmacists to manufacture topical formulations of drugs. Plogel is an alternative used for dermal formulations. […] Drug was added to a known weight of Glaxal or Plogel and levigated to produce a standard drug dispersion. These formulations were prepared the evening before the experiment. For some drugs, radioactive drug (where available) was also added as a doping additive to facilitate quantitation in tissues.
Eutectics: In some cases, gallate containing compounds and drugs were formulated in eutectic mixtures. These included a 60:40 (% w/w) mixture of menthol with ibuprofen. These agents acted as a carrier for retinoic acid, which was then dissolved in this liquid. The 3-drug eutectic/solution was then blended into the CMC/poloxamer emulsion containing EGCG (2.5%). […] The emulsion was stabilized with poloxamer.
Example 29. Pig skin studies. Aluminum cups containing drug formulations were inverted on top of the pig skin in the Franz diffusion cell so that the formulation contents were in contact with the skin. […]
Analysis. […] The amount of drug in each group of skin sections was then determined using HPLC methods, or by radioactivity counting on a liquid scintillation counter. The amount of drug in each group of skin sections was expressed as μg/g or mg/g of tissue.

[9] = Drug release from injectable PG:gallate pastes (60:40) into PBS; type: physicochemical; details: 60:40 PG:EGCG or PG:tannic acid, 2% w/w drug, PBS pH 7.4, 37° C.
Description: Methods: 60:40% w/w PG:EGCG or PG:tannic acid was used in these studies. 588 mg of propylene glycol was weighed into a 20 mL glass vials and 392 of EGCG or tannic acid was added followed by vortexing to distribute and dissolve the gallates. The vials were warmed to 60° C. and vortexed until all the contents were in solution. At this time 20 mg of drug was added (2% w/w) and vortexed until in solution. The following drugs were used: paclitaxel, docetaxel, retinoic acid, amphotericin B, and curcumin. 100 mg of each paste was weighed into the base of a 15 mL glass test tube and 10 mL of phosphate buffered saline was added at pH 7.4 and the tubes were incubated at 37° C. for certain times. All 10 mL of the PBS release media was removed and 1 mL analyzed by HPLC for drug content. 10 mL of fresh PBS was then added to all tubes

[10] = aqueous with cosolvent or surfactant or cyclodextrin, thermodynamic from solid, drug concentration solubilised at maximum EGCG concentration

## Tween 80
[1]
  Solubility of EGCG in excipient: 15%
  Solubility of tannic acid in excipient: 15%

## CC(C)(C)NC(=O)[C@H]1CC[C@H]2[C@@H]3CC[C@H]4NC(=O)C=C[C@]4(C)[C@H]3CC[C@]12C [finasteride]
[2]
  stability of EGCG solutions of the drug: stable for 24 hours
  stability of tannic acid solutions of the drug: stable for 24 hours
[3]; PLGA microspheres with EGCG
  drug released: approx 80%
[3]; PLGA microspheres with tannic acid
  drug released: approx 80%
[3]; PLGA microspheres without EGCG or tannic acid, after 32 days
  encapsulated drug released: 7%
[3]; PLGA with EGCG, at 51 days
  residual drug as % of the original loading: 16%
[3]; PLGA with tannic acid, at 51 days
  residual drug as % of the original loading: 8%
[3]; plga alone, at 31 days
  residual drug as % of the original loading: 89%
[4]; PVA incubated with tannic acid/finasteride solution, PBS, in 3 days
  finasteride release: 100%
[4]; the other embolic particles (PVA with EGCG, Embospheres with EGCG or tannic acid)
  period of finasteride release: over a two week period
Physchem [5]; 24 h
  stability of solutions: stable over 24 hours
Physchem [5]; aqueous with cosolvent or surfactant or cyclodextrin
  solubility: > 10000 µg/mL
Physchem [5]; pH 7, aqueous with cosolvent or surfactant or cyclodextrin
  solubility: 8000 to 10000 µg/mL (≈ 21.5 to 26.8 mM)
Physchem [5]; water
  solubility: 75 µg/mL (≈ 0.201 mM)
Physchem [6]; [10]
  solubility: ~11000 µg/mL (≈ 29.5 mM)
Physchem [6]; pH 7, aqueous with cosolvent or surfactant or cyclodextrin, thermodynamic from solid, drug concentration solubilised at maximum tannic acid concentration
  solubility: ~10000 µg/mL (≈ 26.8 mM)

## COc1cc(/C=C/C(=O)CC(=O)/C=C/c2ccc(O)c(OC)c2)ccc1O [curcumin]
Caco2 cells; curcumin 250 microgram per ml in EGCG 25 mg per ml, versus diblock copolymer
  curcumin uptake and transport through the cells: much higher levels
Caco2 cells; diblock copolymer micellar solution, 250 micrograms/ml
  curcumin passing through and entering the cells: small amount
[2]
  stability of EGCG solutions of the drug: stable for 24 hours
  stability of tannic acid solutions of the drug: stable for 24 hours
[7]
  Visual appearance: clear
[7]; 1 ml of water
  Drug Concentration: 250 microgram/ml
[7]; under a microscope
  Particulates present: no
[8]
  drug loading at which drug precipitated out of film: approximately 5 % w/w
Physchem [6]; [10]
  solubility: ~4700 µg/mL (≈ 12.8 mM)
Physchem [6]; aqueous with cosolvent or surfactant or cyclodextrin, thermodynamic from solid, drug concentration solubilised at maximum tannic acid concentration
  solubility: ~12000 µg/mL (≈ 32.6 mM)
Physchem [6]; water, free solubility in water
  solubility: < 1 µg/mL
Pig skin
  drug uptake by pig skin: essentially no drug uptake
[9]
  drug release from PG:gallate paste: relatively controlled release of the drug over 24 hours
